Experimental data as given in the supplement of paper PMC11997997.

How the values were obtained:
[1] = tested on: Mycobacterium tuberculosis CDC1551 (intracellular, in murine BMDM); assay: area under intracellular growth-inhibition dose-response curve (AUC (% inhibition x dose, relative)); higher = more potent; conditions: duration: 6 days; dose range: 0.13-80 uM, 8 points
How it was run: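 Macrophages derived from primary murine bone marrow were infected for 1 h at multiplicity of infection 1 with luciferase-expressing M. tuberculosis CDC1551, then treated for 6 days at final concentrations of 80–0.13 μM. Bright-Glo luciferin signal, normalised to a reference drug control and the lowest-concentration wells, gave the growth readout. Area under the growth-inhibition dose–response curve was then calculated in GraphPad Prism.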

[2] = tested on: murine bone marrow-derived macrophages; assay: area under cytotoxicity dose-response curve (AUC (% cytotoxicity x dose, relative)); higher = more cytotoxic; conditions: duration: 6 days; dose range: 0.13-80 uM, 8 points
How it was run: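 Primary murine bone marrow-derived macrophages in opaque 384-well plates were exposed to an 8-point, 2.5-fold dilution series (final 80–0.13 μM) for 6 days at 37 °C in 5% CO2. Viability was read with Promega's CellTiter-Glo luminescence assay, and percent cytotoxicity was normalised to vehicle and positive control wells. Cytotoxicity is reported as the area under the dose–response curve, calculated in GraphPad Prism version 10.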

With `Cc1ccc(S(=O)(=O)N2CCN(C(=O)c3cc(S(=O)(=O)N4CCOCC4)c(Cl)cc3Cl)CC2)cc1` the “area under intracellular growth-inhibition dose-response curve” value [1] was 75.1 and the “area under cytotoxicity dose-response curve” value [2] was 21.2.

With `CC1CCN(C(=O)C2CCN(c3ncnc4c3nc3n4CCCCC3)CC2)CC1` the “area under intracellular growth-inhibition dose-response curve” value [1] was 176 and the “area under cytotoxicity dose-response curve” value [2] was 35.4.

`O=C(CC1CCCCC1)NCc1ccccn1` was tested, and the “area under intracellular growth-inhibition dose-response curve” value [1] was 222 and the “area under cytotoxicity dose-response curve” value [2] was 3.91.

For `Nc1nc(Cl)nc2c1ncn2[C@@H]1O[C@H](CO)[C@@H](O)[C@H]1O`, the “area under intracellular growth-inhibition dose-response curve” value [1] was 205 and the “area under cytotoxicity dose-response curve” value [2] was 81.9.

`COc1cc(OC)c(/C=N/NC(=O)c2ccncc2)cc1Br` was tested, and the “area under intracellular growth-inhibition dose-response curve” value [1] was 249 and the “area under cytotoxicity dose-response curve” value [2] was 98.

`O=C(COC(=O)C1CC2CCCC(C1)C2=O)Nc1ccc(F)c(Cl)c1` (stereo unspecified) was tested, and the “area under intracellular growth-inhibition dose-response curve” value [1] was 90.3 and the “area under cytotoxicity dose-response curve” value [2] was 44.5.

`O=C(CCC1CCCCC1)NCc1cccs1` was tested, and the “area under intracellular growth-inhibition dose-response curve” value [1] was 187 and the “area under cytotoxicity dose-response curve” value [2] was 42.9.

In the case of `Cc1ccc(-c2nnc(C)c(N3CCCC3)n2)cc1`, the “area under intracellular growth-inhibition dose-response curve” value [1] is reported as 101 and the “area under cytotoxicity dose-response curve” value [2] is reported as 92.9.

With `Cc1nn2c(O)cc(-c3ccc([N+](=O)[O-])cc3)nc2c1-c1ccccc1` the “area under intracellular growth-inhibition dose-response curve” value [1] was 128 and the “area under cytotoxicity dose-response curve” value [2] was 99.5.

For `Cc1c(Cl)cccc1NC(=S)NCC(O)c1ccccc1` (stereo unspecified), the “area under intracellular growth-inhibition dose-response curve” value [1] was 158 and the “area under cytotoxicity dose-response curve” value [2] was 81.9.

For `COc1ccc2nc(N3CCN(C(=O)c4ccc([N+](=O)[O-])o4)CC3)sc2c1`, the “area under intracellular growth-inhibition dose-response curve” value [1] was 33.1 and the “area under cytotoxicity dose-response curve” value [2] was 87.

For `CC(=O)c1c(C)[n+]([O-])c2cc(F)c(F)cc2[n+]1[O-]`, the “area under intracellular growth-inhibition dose-response curve” value [1] was 45.9 and the “area under cytotoxicity dose-response curve” value [2] was 13.7.

In the case of `Cc1c([N+](=O)[O-])cc(C(=O)NCc2ccc(F)cc2)cc1[N+](=O)[O-]`, the “area under intracellular growth-inhibition dose-response curve” value [1] is reported as 252 and the “area under cytotoxicity dose-response curve” value [2] is reported as less than 0.

For `O=[N+]([O-])c1cc(Cl)c(O)c(-[n+]2c(-c3ccccc3)cc(-c3ccccc3)cc2-c2ccccc2)c1.[O-][Cl+3]([O-])([O-])[O-]`, the “area under intracellular growth-inhibition dose-response curve” value [1] was 150 and the “area under cytotoxicity dose-response curve” value [2] was 35.3.

`CCOc1c(Cl)cc(/C=N/NC(N)=S)cc1OC` was tested, and the “area under intracellular growth-inhibition dose-response curve” value [1] was 266 and the “area under cytotoxicity dose-response curve” value [2] was less than 0.

With `O=C(Nc1ccc(N2CCN(C(=O)c3ccc(Cl)cc3)CC2)cc1)c1ccc([N+](=O)[O-])o1` the “area under intracellular growth-inhibition dose-response curve” value [1] was 246 and the “area under cytotoxicity dose-response curve” value [2] was 34.5.

In the case of `COC(=O)c1c(NC(=O)CN2C(=O)NC3(CCCCC3C)C2=O)sc2c1CCC2` (stereo unspecified), the “area under intracellular growth-inhibition dose-response curve” value [1] is reported as 78.7 and the “area under cytotoxicity dose-response curve” value [2] is reported as 4.39.

`C/C(Cn1cnc([N+](=O)[O-])n1)=N\NC(=O)c1ccncc1` was tested, and the “area under intracellular growth-inhibition dose-response curve” value [1] was 249 and the “area under cytotoxicity dose-response curve” value [2] was 39.4.

`O=C(N/N=C/c1cn[nH]c1-c1ccc(F)cc1)c1ccncc1` was tested, and the “area under intracellular growth-inhibition dose-response curve” value [1] was 226 and the “area under cytotoxicity dose-response curve” value [2] was 215.

`Cc1ccccc1CNC(=O)c1ccccc1` was tested, and the “area under intracellular growth-inhibition dose-response curve” value [1] was 213 and the “area under cytotoxicity dose-response curve” value [2] was 38.3.

`O=C(NN=C1C2CC3CC(C2)CC1C3)c1ccncc1` was tested, and the “area under intracellular growth-inhibition dose-response curve” value [1] was 238 and the “area under cytotoxicity dose-response curve” value [2] was 103.

`Cc1ccc(C)c(NC(=O)CN(C)C(=O)c2ccc(S(=O)(=O)N3CCCCCC3)cc2)c1` was tested, and the “area under intracellular growth-inhibition dose-response curve” value [1] was 30.7 and the “area under cytotoxicity dose-response curve” value [2] was less than 0.

With `CCCCCc1ccc(OCCCC[n+]2ccccc2)c(CCCCC)c1.[Cl-]` the “area under intracellular growth-inhibition dose-response curve” value [1] was 16 and the “area under cytotoxicity dose-response curve” value [2] was 79.3.

In the case of `NC1=NC(=O)/C(=C/c2ccc(Cl)cc2Cl)S1`, the “area under intracellular growth-inhibition dose-response curve” value [1] is reported as 129 and the “area under cytotoxicity dose-response curve” value [2] is reported as less than 0.

In the case of `CCC[C@@H](CN1CCC[C@H]1CN1C(N)=NC[C@H]1CC(C)C)N1C[C@@H]([C@H](C)CC)N(CCc2ccc(Cl)c(Cl)c2)C1=N`, the “area under intracellular growth-inhibition dose-response curve” value [1] is reported as 129 and the “area under cytotoxicity dose-response curve” value [2] is reported as 13.4.

For `CC(NC(=O)Nc1ccc(Br)cc1)C(C)(C)C` (stereo unspecified), the “area under intracellular growth-inhibition dose-response curve” value [1] was 228 and the “area under cytotoxicity dose-response curve” value [2] was 55.3.

For `O=[N+]([O-])c1ccc(CN2CCN(c3ccccc3)CC2)o1`, the “area under intracellular growth-inhibition dose-response curve” value [1] was 254 and the “area under cytotoxicity dose-response curve” value [2] was 42.8.

`CCCCNC(=O)Cc1ccc(C)cc1` was tested, and the “area under intracellular growth-inhibition dose-response curve” value [1] was 115 and the “area under cytotoxicity dose-response curve” value [2] was 80.9.

For `O=C(N/N=C/c1ccc2c(c1)OCCO2)c1ccncc1`, the “area under intracellular growth-inhibition dose-response curve” value [1] was 124 and the “area under cytotoxicity dose-response curve” value [2] was 66.5.

With `C/C=C/C=N\NC(=O)c1ccncc1` the “area under intracellular growth-inhibition dose-response curve” value [1] was 259 and the “area under cytotoxicity dose-response curve” value [2] was 9.36.

`Cc1cc(/C=N/NC(N)=S)c(C)n1-c1ccc(Cl)c(Cl)c1` was tested, and the “area under intracellular growth-inhibition dose-response curve” value [1] was 257 and the “area under cytotoxicity dose-response curve” value [2] was less than 0.

With `NC(=S)N/N=C/c1ccc(-c2cccc([N+](=O)[O-])c2)o1` the “area under intracellular growth-inhibition dose-response curve” value [1] was 206 and the “area under cytotoxicity dose-response curve” value [2] was 51.4.

`Cc1nn(C(C)C(=O)NC2C(=O)N3C(C(=O)O)=C(CSc4nnnn4C)CSC23)cc1Cl` (stereo unspecified) was tested, and the “area under intracellular growth-inhibition dose-response curve” value [1] was 194 and the “area under cytotoxicity dose-response curve” value [2] was 9.03.

With `CCCCC(=O)NCc1ccccc1Cl` the “area under intracellular growth-inhibition dose-response curve” value [1] was 262 and the “area under cytotoxicity dose-response curve” value [2] was 22.2.

With `COc1ccc2nc(C)cc(N/N=C/c3ccccc3)c2c1` the “area under intracellular growth-inhibition dose-response curve” value [1] was 136 and the “area under cytotoxicity dose-response curve” value [2] was 97.6.

For `COc1ccc(CCNC(=O)c2c(C)nc3ccccn23)cc1`, the “area under intracellular growth-inhibition dose-response curve” value [1] was 198 and the “area under cytotoxicity dose-response curve” value [2] was less than 0.

In the case of `O=C(Nc1ccc(NC(=S)NC(=O)c2cccs2)cc1)c1ccccc1`, the “area under intracellular growth-inhibition dose-response curve” value [1] is reported as 244 and the “area under cytotoxicity dose-response curve” value [2] is reported as 33.4.

For `CN(C)c1ccc(S(=O)(=O)N2CCCCC2)cc1NC(=O)CCNC(=O)c1ccccc1Cl`, the “area under intracellular growth-inhibition dose-response curve” value [1] was 67.5 and the “area under cytotoxicity dose-response curve” value [2] was less than 0.

`CC1CCC(C(C)C)C(OC(=O)C[n+]2c(-c3ccccc3)n(C)c3ccccc32)C1.[Cl-]` (stereo unspecified) was tested, and the “area under intracellular growth-inhibition dose-response curve” value [1] was 202 and the “area under cytotoxicity dose-response curve” value [2] was 56.7.

With `CCOC(=O)c1c(-c2ccccc2)nc2ccc(C)cn12` the “area under intracellular growth-inhibition dose-response curve” value [1] was 203 and the “area under cytotoxicity dose-response curve” value [2] was 58.7.

In the case of `COc1cccc(NC(=O)NC2CCCCCCC2)c1`, the “area under intracellular growth-inhibition dose-response curve” value [1] is reported as 162 and the “area under cytotoxicity dose-response curve” value [2] is reported as 103.

With `On1c(-c2ccccc2)nc2ccccc21` the “area under intracellular growth-inhibition dose-response curve” value [1] was 28.6 and the “area under cytotoxicity dose-response curve” value [2] was less than 0.

`O=c1c2cc(Cl)ccc2oc2nc3n(c(=O)c12)CCCS3` was tested, and the “area under intracellular growth-inhibition dose-response curve” value [1] was 216 and the “area under cytotoxicity dose-response curve” value [2] was 33.5.

`Cc1ccc(C(=O)c2oc3ccc(Cl)cc3c2NC(=O)CN2CCN(C)CC2)cc1` was tested, and the “area under intracellular growth-inhibition dose-response curve” value [1] was 131 and the “area under cytotoxicity dose-response curve” value [2] was 69.1.

With `O=C(NCC1CCCCC1)c1ccc(Cl)nc1` the “area under intracellular growth-inhibition dose-response curve” value [1] was 258 and the “area under cytotoxicity dose-response curve” value [2] was 2.72.

`O=C(NCCc1c[nH]c2ccccc12)c1cc([N+](=O)[O-])cc([N+](=O)[O-])c1` was tested, and the “area under intracellular growth-inhibition dose-response curve” value [1] was 257 and the “area under cytotoxicity dose-response curve” value [2] was less than 0.

For `O=C(COC(=O)Cc1cccs1)NCC(=O)Nc1ccc(F)cc1`, the “area under intracellular growth-inhibition dose-response curve” value [1] was less than 0 and the “area under cytotoxicity dose-response curve” value [2] was 45.1.

In the case of `CC1CCC(NC(=O)c2ccc3c(c2)OCO3)CC1` (stereo unspecified), the “area under intracellular growth-inhibition dose-response curve” value [1] is reported as 218 and the “area under cytotoxicity dose-response curve” value [2] is reported as less than 0.

For `CCCCN1CC(COc2ccccc2)OC1=O` (stereo unspecified), the “area under intracellular growth-inhibition dose-response curve” value [1] was 195 and the “area under cytotoxicity dose-response curve” value [2] was less than 0.

For `NC(=S)N/N=C/c1ccc(-c2ccc(Cl)c(Cl)c2)o1`, the “area under intracellular growth-inhibition dose-response curve” value [1] was 219 and the “area under cytotoxicity dose-response curve” value [2] was 107.

`Cc1ccc(C(=O)N2CCN(c3ccc(NC(=S)NC(=O)c4cccs4)cc3)CC2)cc1` was tested, and the “area under intracellular growth-inhibition dose-response curve” value [1] was 275 and the “area under cytotoxicity dose-response curve” value [2] was less than 0.

With `NC(=S)N/N=C/c1ccc(C(F)(F)F)cc1` the “area under intracellular growth-inhibition dose-response curve” value [1] was 260 and the “area under cytotoxicity dose-response curve” value [2] was 19.4.

In the case of `O=C(N/N=C/c1cccc2ccccc12)c1ccncc1`, the “area under intracellular growth-inhibition dose-response curve” value [1] is reported as 262 and the “area under cytotoxicity dose-response curve” value [2] is reported as 67.8.
